This passage reports Ratio, LD90 and LD50 results from ChEMBL document CHEMBL3046781, “Resistance of Helicoverpa assulta (Guenée) (Lepidoptera: Noctuidae) to fenvalerate, phoxim and methomyl in China” (2009).

What all share (assay type): functional
Experiment [1] relates to Helicoverpa assulta. Nature of the experiment: Resistance factor, ratio of LD50 for sixth-instar larvae of Helicoverpa assulta FJ1 to LD50 for sixth-instar larvae of Helicoverpa assulta at 21 to 3390 mg/l.
In experiment [2] the test system is Helicoverpa assulta. Nature of the experiment: Insecticidal activity against sixth-instar larvae of Helicoverpa assulta at 21 to 3390 mg/l after 48 hr by chi-squared analysis.
For experiment [3], the system named is Helicoverpa assulta. Nature of the experiment: Insecticidal activity against sixth-instar larvae of Helicoverpa assulta SD1 at 21 to 3390 mg/l after 48 hr by chi-squared analysis.
Experiment [4] concerns Helicoverpa assulta. The experiment in a line: Insecticidal activity against sixth-instar larvae of Helicoverpa assulta YN4 at 21 to 3390 mg/l after 48 hr by chi-squared analysis.
For experiment [5], the system named is Helicoverpa assulta. Nature of the experiment: Resistance factor, ratio of LD50 for sixth-instar larvae of Helicoverpa assulta HN1 to LD50 for sixth-instar larvae of Helicoverpa assulta at 21 to 3390 mg/l.
Experiment [6] deals with Helicoverpa assulta. Nature of the experiment: Resistance factor, ratio of LD50 for sixth-instar larvae of Helicoverpa assulta GZ1 to LD50 for sixth-instar larvae of Helicoverpa assulta at 21 to 3390 mg/l.
Experiment [7] deals with Helicoverpa assulta. Nature of the experiment: Resistance factor, ratio of LD50 for sixth-instar larvae of Helicoverpa assulta YN2 to LD50 for sixth-instar larvae of Helicoverpa assulta at 21 to 3390 mg/l.
Experiment [8] has as its system Helicoverpa assulta. Nature of the experiment: Insecticidal activity against sixth-instar larvae of Helicoverpa assulta YN3 at 21 to 3390 mg/l after 48 hr by chi-squared analysis.
In experiment [9] the test system is Helicoverpa assulta. The experiment in a line: Insecticidal activity against sixth-instar larvae of Helicoverpa assulta AH2 at 21 to 3390 mg/l after 48 hr by chi-squared analysis.
In experiment [10] the test system is Helicoverpa assulta. The experiment in a line: Insecticidal activity against sixth-instar larvae of Helicoverpa assulta SD2 at 21 to 3390 mg/l after 48 hr by chi-squared analysis.
The test system of experiment [11] is Helicoverpa assulta. Nature of the experiment: Resistance factor, ratio of LD50 for sixth-instar larvae of Helicoverpa assulta HB1 to LD50 for sixth-instar larvae of Helicoverpa assulta at 21 to 3390 mg/l.
Experiment [12] relates to Helicoverpa assulta. Nature of the experiment: Insecticidal activity against sixth-instar larvae of Helicoverpa assulta GZ1 at 1.8 to 183360 mg/l after 48 hr by chi-squared analysis.
Experiment [13] has as its system Helicoverpa assulta. Nature of the experiment: Insecticidal activity against sixth-instar larvae of Helicoverpa assulta YN8 at 1.8 to 183360 mg/l after 48 hr by chi-squared analysis.
Experiment [14] deals with Helicoverpa assulta. The experiment in a line: Resistance factor, ratio of LD50 for sixth-instar larvae of Helicoverpa assulta YN1 to LD50 for sixth-instar larvae of Helicoverpa assulta at 1.8 to 183360 mg/l.
The test system of experiment [15] is Helicoverpa assulta. Nature of the experiment: Resistance factor, ratio of LD50 for sixth-instar larvae of Helicoverpa assulta HN2 to LD50 for sixth-instar larvae of Helicoverpa assulta at 1.8 to 183360 mg/l.
Experiment [16] deals with Helicoverpa assulta. Nature of the experiment: Resistance factor, ratio of LD50 for sixth-instar larvae of Helicoverpa assulta GZ4 to LD50 for sixth-instar larvae of Helicoverpa assulta at 1.8 to 183360 mg/l.
Experiment [17] has as its system Helicoverpa assulta. The experiment in a line: Resistance factor, ratio of LD50 for sixth-instar larvae of Helicoverpa assulta HB1 to LD50 for sixth-instar larvae of Helicoverpa assulta at 1.8 to 183360 mg/l.
For experiment [18], the system named is Helicoverpa assulta. Nature of the experiment: Insecticidal activity against sixth-instar larvae of Helicoverpa assulta AH3 at 1.8 to 183360 mg/l after 48 hr by chi-squared analysis.
Experiment [19] relates to Helicoverpa assulta. The experiment in a line: Resistance factor, ratio of LD50 for sixth-instar larvae of Helicoverpa assulta AH1 to LD50 for sixth-instar larvae of Helicoverpa assulta at 1.8 to 183360 mg/l.
Experiment [20] concerns Helicoverpa assulta. Nature of the experiment: Resistance factor, ratio of LD50 for sixth-instar larvae of Helicoverpa assulta YN7 to LD50 for sixth-instar larvae of Helicoverpa assulta at 1.8 to 183360 mg/l.
For experiment [21], the system named is Helicoverpa assulta. Nature of the experiment: Insecticidal activity against sixth-instar larvae of Helicoverpa assulta FJ3 at 1.8 to 183360 mg/l after 48 hr by chi-squared analysis.
Experiment [22] concerns Helicoverpa assulta. Nature of the experiment: Insecticidal activity against sixth-instar larvae of Helicoverpa assulta GZ5 at 1.8 to 183360 mg/l after 48 hr by chi-squared analysis.
Experiment [23] has as its system Helicoverpa assulta. Nature of the experiment: Insecticidal activity against sixth-instar larvae of Helicoverpa assulta SD2 at 39 to 12630 mg/l after 48 hr by chi-squared analysis.
Experiment [24] concerns Helicoverpa assulta. The experiment in a line: Insecticidal activity against sixth-instar larvae of Helicoverpa assulta SD1 at 39 to 12630 mg/l after 48 hr by chi-squared analysis.
The subject of experiment [25] is Helicoverpa assulta. Nature of the experiment: Insecticidal activity against sixth-instar larvae of Helicoverpa assulta FJ2 at 39 to 12630 mg/l after 48 hr by chi-squared analysis.
For experiment [26], the system named is Helicoverpa assulta. The experiment in a line: Insecticidal activity against sixth-instar larvae of Helicoverpa assulta YN5 at 39 to 12630 mg/l after 48 hr by chi-squared analysis.
Experiment [27] has as its system Helicoverpa assulta. Nature of the experiment: Resistance factor, ratio of LD50 for sixth-instar larvae of Helicoverpa assulta YN4 to LD50 for sixth-instar larvae of Helicoverpa assulta at 39 to 12630 mg/l.
Experiment [28] deals with Helicoverpa assulta. Nature of the experiment: Insecticidal activity against sixth-instar larvae of Helicoverpa assulta YN7 at 39 to 12630 mg/l after 48 hr by chi-squared analysis.
Experiment [29] deals with Helicoverpa assulta. The experiment in a line: Resistance factor, ratio of LD50 for sixth-instar larvae of Helicoverpa assulta AH1 to LD50 for sixth-instar larvae of Helicoverpa assulta at 39 to 12630 mg/l.
In experiment [30] the test system is Helicoverpa assulta. Nature of the experiment: Resistance factor, ratio of LD50 for sixth-instar larvae of Helicoverpa assulta GZ5 to LD50 for sixth-instar larvae of Helicoverpa assulta at 39 to 12630 mg/l.
For experiment [31], the system named is Helicoverpa assulta. The experiment in a line: Resistance factor, ratio of LD50 for sixth-instar larvae of Helicoverpa assulta FJ1 to LD50 for sixth-instar larvae of Helicoverpa assulta at 39 to 12630 mg/l.
The test system of experiment [32] is Helicoverpa assulta. The experiment in a line: Insecticidal activity against sixth-instar larvae of Helicoverpa assulta HN2 at 39 to 12630 mg/l after 48 hr by chi-squared analysis.
Experiment [33] relates to Helicoverpa assulta. Nature of the experiment: Insecticidal activity against sixth-instar larvae of Helicoverpa assulta AH1 at 39 to 12630 mg/l after 48 hr by chi-squared analysis.
Experiment [34] has as its system Helicoverpa assulta. Nature of the experiment: Resistance factor, ratio of LD50 for sixth-instar larvae of Helicoverpa assulta YN3 to LD50 for sixth-instar larvae of Helicoverpa assulta at 39 to 12630 mg/l.
In experiment [35] the test system is Helicoverpa assulta. The experiment in a line: Insecticidal activity against sixth-instar larvae of Helicoverpa assulta AH3 at 39 to 12630 mg/l after 48 hr by chi-squared analysis.

On to `CNC(=O)ON=C(C)SC` [METHOMYL], for which the Ratio with Helicoverpa assulta [1] was 14.6; in the experiment with Helicoverpa assulta [5] it was 4.48; in the experiment with Helicoverpa assulta [6] it was 28.9; in the experiment on Helicoverpa assulta [7], 18.4; with Helicoverpa assulta [11], 8.45. For the same compound, the LD90 was 4.1 µg/g in the experiment with Helicoverpa assulta [2]; 19.5 µg/g in the experiment on Helicoverpa assulta [3]; 62.2 µg/g in the experiment on Helicoverpa assulta [4]; 78.5 µg/g in the experiment on Helicoverpa assulta [8]; 59.6 µg/g in the experiment on Helicoverpa assulta [9]; 41.8 µg/g with Helicoverpa assulta [10]. The 50% lethal dose (LD50) worked out at 1.45 mg/kg in the experiment with Helicoverpa assulta [2] (Helicoverpa assulta, 48 h); 5.68 mg/kg with Helicoverpa assulta [3] (Helicoverpa assulta, SD1, 48 h); 16.7 mg/kg with Helicoverpa assulta [4] (Helicoverpa assulta, YN4, 48 h); 33.3 mg/kg with Helicoverpa assulta [8] (Helicoverpa assulta, YN3, 48 h); 22.1 mg/kg in the experiment on Helicoverpa assulta [9] (Helicoverpa assulta, AH2, 48 h); 8.92 mg/kg with Helicoverpa assulta [10] (Helicoverpa assulta, SD2, 48 h).

`CC(C)C(C(=O)OC(C#N)c1cccc(Oc2ccccc2)c1)c1ccc(Cl)cc1` (centres undefined) [FENVALERATE]: the LD90 in the experiment with Helicoverpa assulta [12] turned out to be 1043 µg/g; in the experiment on Helicoverpa assulta [13], 9100 µg/g; in the experiment with Helicoverpa assulta [18], 470 µg/g; in the experiment with Helicoverpa assulta [21], 3.39 µg/g; in the experiment on Helicoverpa assulta [22], 74.2 µg/g. The LD50 in the experiment with Helicoverpa assulta [12] (Helicoverpa assulta, GZ1, 48 h) amounted to 301 mg/kg; with Helicoverpa assulta [13] (Helicoverpa assulta, YN8, 48 h), 2860 mg/kg; with Helicoverpa assulta [18] (Helicoverpa assulta, AH3, 48 h), 251 mg/kg; in the experiment on Helicoverpa assulta [21] (Helicoverpa assulta, FJ3, 48 h), 1.47 mg/kg; in the experiment with Helicoverpa assulta [22] (Helicoverpa assulta, GZ5, 48 h) it was 30.6 mg/kg. In addition, the Ratio in the experiment on Helicoverpa assulta [14] amounted to 8412; with Helicoverpa assulta [15], 7.23; in the experiment on Helicoverpa assulta [16], 347; with Helicoverpa assulta [17], 5.83; in the experiment on Helicoverpa assulta [19], 2054; in the experiment with Helicoverpa assulta [20], 1537.

Regarding `CCOP(=S)(OCC)O/N=C(\C#N)c1ccccc1` [PHOXIM], the LD90 was determined as 50.5 µg/g in the experiment on Helicoverpa assulta [23]; 26.5 µg/g in the experiment with Helicoverpa assulta [24]; 86.5 µg/g in the experiment on Helicoverpa assulta [25]; 83.8 µg/g with Helicoverpa assulta [26]; 131 µg/g with Helicoverpa assulta [28]; 19.9 µg/g in the experiment on Helicoverpa assulta [32]. Besides, the values for the LD90 in the experiment on Helicoverpa assulta [33] and in the experiment on Helicoverpa assulta [35] were 819 µg/g and 181 µg/g, respectively. Further, the LD50 amounted to 17.2 mg/kg in the experiment on Helicoverpa assulta [23] (Helicoverpa assulta, SD2, 48 h); 11.9 mg/kg with Helicoverpa assulta [24] (Helicoverpa assulta, SD1, 48 h); 22 mg/kg in the experiment on Helicoverpa assulta [25] (Helicoverpa assulta, FJ2, 48 h); 25.7 mg/kg in the experiment with Helicoverpa assulta [26] (Helicoverpa assulta, YN5, 48 h); 41.8 mg/kg in the experiment with Helicoverpa assulta [28] (Helicoverpa assulta, YN7, 48 h); 8.22 mg/kg in the experiment with Helicoverpa assulta [32] (Helicoverpa assulta, HN2, 48 h). In addition, the LD50 came out at 119 mg/kg with Helicoverpa assulta [33] (Helicoverpa assulta, AH1, 48 h) and 33.3 mg/kg with Helicoverpa assulta [35] (Helicoverpa assulta, AH3, 48 h). The Ratio in the experiment on Helicoverpa assulta [27] came to 16.9; in the experiment on Helicoverpa assulta [29], 50.8; with Helicoverpa assulta [30] it was 7.1; in the experiment on Helicoverpa assulta [31], 7.13; in the experiment on Helicoverpa assulta [34] it was 12.5.

Broadly, the LD50 is the dose expected to kill half of the subjects tested. A high value points to lower toxicity.
